In ChEMBL document CHEMBL1139519, “Are L-adenosine and its derivatives substrates for S-adenosyl-L-homocysteine hydrolase?” (J Med Chem, 2005) one finds Ki, Kinact and Inhibitory potency data, which are given here for 2 molecules.

Active and inactive are the calls of the source. The calls are words filed in the database; no cut-off is given here.

The target in assay [1] is T1, Adenosylhomocysteinase (Homo sapiens, UniProt P23526). The assay can be described thus: Inhibitory potency against recombinant human placental S-Adenosyl-L-homocysteine Hydrolase.
Target sequence in this assay (P23526 whole entry): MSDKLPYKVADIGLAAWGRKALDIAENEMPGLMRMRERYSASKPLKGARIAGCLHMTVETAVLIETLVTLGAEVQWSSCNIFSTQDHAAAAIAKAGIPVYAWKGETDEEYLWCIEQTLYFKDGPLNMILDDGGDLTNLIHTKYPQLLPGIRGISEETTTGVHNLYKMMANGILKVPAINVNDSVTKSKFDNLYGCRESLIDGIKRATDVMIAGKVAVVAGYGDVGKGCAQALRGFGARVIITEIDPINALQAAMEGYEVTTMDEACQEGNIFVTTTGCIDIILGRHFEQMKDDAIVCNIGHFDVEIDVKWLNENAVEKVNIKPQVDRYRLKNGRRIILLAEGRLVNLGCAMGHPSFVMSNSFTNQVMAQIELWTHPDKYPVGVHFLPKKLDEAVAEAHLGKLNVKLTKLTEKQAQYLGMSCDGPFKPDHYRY
Assay [2] has as its target T1, Adenosylhomocysteinase.
Target sequence in this assay (P23526 2-432 limits assumed): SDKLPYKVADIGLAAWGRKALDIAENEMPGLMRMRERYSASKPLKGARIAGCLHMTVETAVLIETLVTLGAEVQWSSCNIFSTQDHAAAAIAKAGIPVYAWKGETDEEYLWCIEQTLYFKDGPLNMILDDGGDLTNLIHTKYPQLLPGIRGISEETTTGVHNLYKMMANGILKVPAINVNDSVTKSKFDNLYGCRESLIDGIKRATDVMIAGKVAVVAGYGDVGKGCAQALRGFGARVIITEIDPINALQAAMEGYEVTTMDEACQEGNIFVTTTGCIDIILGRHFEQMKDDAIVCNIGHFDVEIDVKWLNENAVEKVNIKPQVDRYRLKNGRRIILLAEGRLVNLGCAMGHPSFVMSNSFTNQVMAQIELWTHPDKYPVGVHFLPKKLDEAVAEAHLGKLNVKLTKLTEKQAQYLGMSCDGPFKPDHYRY
Description: Inactivation constant against recombinant human placental S-Adenosyl-L-homocysteine Hydrolase
The target in assay [3] is T1, Adenosylhomocysteinase. This is another data set of the same source.
Target sequence in this assay (P23526 2-432 limits assumed): as above
Description: Inhibitory potency against recombinant human placental S-Adenosyl-L-homocysteine Hydrolase at 200 uM

Regarding `Nc1ncnc2c1ncn2[C@H]1OC(/C=N/O)C(O)[C@@H]1O` (single isomer, unassigned), the Ki on Adenosylhomocysteinase [1] was determined as 670 nM. The molecule also displayed a Kinact at Adenosylhomocysteinase [2] of 0.16 min⁻¹. In addition, the Inhibitory potency result at Adenosylhomocysteinase [3] was “inactive”.
Regarding `Nc1ncnc2c1ncn2C1O[C@H](CO)[C@@H](O)[C@H]1O` (single isomer, unassigned), at Adenosylhomocysteinase [3], the Inhibitory potency result was “inactive”.

The Ki is the dissociation constant of the complex between target and ligand, obtained from inhibition or displacement.
